Data reported in US20220056043A1, “NITROGEN-CONTAINING FUSED CYCLIC COMPOUND, PREPARATION METHOD THEREFOR AND USE THEREOF” (SICHUAN KELUN-BIOTECH BIOPHARMACEUTICAL CO., LTD., priority 2019, published 2022).
Counter-ions that a name gives are not always drawn.

Key:
THP1-defNLRP3 cells = experiment: Agonistic effect on the expression of IL-1β in NLRP3 deficient THP1 cells (THP1-defNLRP3) after PMA-induced differentiation (HTRF); type: cell-based, human; details: Homo sapiens, THP-1; IL-1β level, PMA-differentiated NLRP3 deficient THP1 cells, 6 hours; highest test concentration 30 μM; read-out: hNLRP3 EC50 (μM) (THP-1defNLRP3)
Excerpt: Experimental Example 2: Agonistic Effect of the Compound of the Invention on the Expression of IL-1β in NLRP3 Deficient THP1 Cells (THP1-defNLRP3 Cells) after PMA-Induced Differentiation
In this test, a HTRF detection method was used to test the effect of the compound of the invention on the level of IL-1β in THP1-defNLRP3 cells to evaluate the specificity of the agonistic effect of the compound on hNLRP3 inflammasome or hNLRP3 inflammasome pathway.
Reagents: as described in Experimental Example 1
Cell: THP1-defNLRP3 (InvivoGen)
Kit: IL-1β assay kit (CISBIO)
1) THP1-defNLRP3 cells in a logarithmic growth phase were seeded in a T75 culture flask at a density of 5×10^5 cells/well, and cultured in a cell incubator at 37° C., 5% CO2 for 24 hours, and then 1 μM PMA was used to induce THP1-defNLRP3 suspension cells to become adherent macrophages. The medium was RPMI 1640 containing 10% heat-inactivated FBS and 0.05 mM β-mercaptoethanol.
2) The cells were induced and cultured for 24 hours. Then the adherent cells were trypsinized and centrifuged at 1000 rpm for 5 min. The supernatant was removed, and the cells were resuspended to a density of 2×10^6 cells/mL in RPMI 1640 medium containing 2% heat-inactivated FBS. 50 μL/well of the cell resuspension was taken and spread on a 96-well plate such that the number of cells in each well was 1×10^5.
3) An appropriate amount of 10 mM DMSO solution of the compound to be tested was taken and diluted to a concentration of 2× test concentration with RPMI 1640 medium containing 2% heat-inactivated FBS. 50 μL/well of the dilution was added to the cells in the 96-well plate, and mixed well. The plate was incubated in a cell incubator at 37° C., 5% CO2 for 6 hours. The supernatant was collected, and the level of IL-1β was measured in accordance with the instructions of the IL-1β detection kit.
4) EC50 was fitted by the GraphPad software log(agonist) vs. response—Variable slope four-parameter method.

hTLR7 = biological target: T1, hTLR7 (Homo sapiens, UniProt Q9NYK1); experiment: Agonistic effect on hTLR7, HEK-hTLR7-NF-κB-Luciferase reporter cells; type: cell-based; details: 16 hours
T1 construct: host or cells: HEK-hTLR7-NF-κB-Luciferase cells
T1 sequence (Q9NYK1 27-1049): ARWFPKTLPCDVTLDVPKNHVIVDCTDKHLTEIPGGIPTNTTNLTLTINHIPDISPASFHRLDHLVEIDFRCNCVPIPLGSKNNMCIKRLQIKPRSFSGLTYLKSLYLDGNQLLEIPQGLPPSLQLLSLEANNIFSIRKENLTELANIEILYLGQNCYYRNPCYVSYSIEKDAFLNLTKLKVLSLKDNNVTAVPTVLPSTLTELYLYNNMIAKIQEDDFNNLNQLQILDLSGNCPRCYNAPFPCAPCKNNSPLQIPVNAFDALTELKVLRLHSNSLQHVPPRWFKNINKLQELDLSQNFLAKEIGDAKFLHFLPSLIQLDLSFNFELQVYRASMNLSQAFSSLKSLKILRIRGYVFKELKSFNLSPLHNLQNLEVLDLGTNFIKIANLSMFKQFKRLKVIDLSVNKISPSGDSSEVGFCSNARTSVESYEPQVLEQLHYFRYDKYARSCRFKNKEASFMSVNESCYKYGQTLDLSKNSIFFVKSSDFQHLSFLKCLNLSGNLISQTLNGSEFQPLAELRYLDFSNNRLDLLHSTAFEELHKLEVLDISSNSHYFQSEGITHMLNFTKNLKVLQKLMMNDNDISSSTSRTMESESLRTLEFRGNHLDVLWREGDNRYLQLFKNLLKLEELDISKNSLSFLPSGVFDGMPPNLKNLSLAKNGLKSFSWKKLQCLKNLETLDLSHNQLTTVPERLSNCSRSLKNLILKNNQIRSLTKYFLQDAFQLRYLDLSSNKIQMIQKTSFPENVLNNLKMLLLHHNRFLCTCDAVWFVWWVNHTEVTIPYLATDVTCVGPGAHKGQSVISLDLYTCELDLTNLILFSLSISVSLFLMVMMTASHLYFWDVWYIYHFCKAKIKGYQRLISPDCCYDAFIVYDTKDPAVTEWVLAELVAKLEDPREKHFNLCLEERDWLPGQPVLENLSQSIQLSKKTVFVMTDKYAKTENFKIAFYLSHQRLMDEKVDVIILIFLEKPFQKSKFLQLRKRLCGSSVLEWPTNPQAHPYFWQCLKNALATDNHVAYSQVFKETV
Excerpt: Experimental Example 3: Agonistic Effect of the Compound of the Invention on hTLR7
In this test, the luciferase in HEK-hTLR7-NF-κB-reporter cells was detected to test the activating effect of the compound of the invention on TLR7 signaling pathway, so as to evaluate the specificity of the agonistic effect of the compound on NLRP3 pathway.
Reagents: DMEM (High glucose); FBS (fetal bovine serum) (Gibco); Bright-Glo™ Luciferase detection kit (Promega)
Cells: HEK-hTLR7-NF-κB-Luciferase gene cells (human TLR7 NF-κB-luciferase reporter gene cells) (Nanjing Cobioer)
1) The HEK-hTLR7-NF-κB-Luciferase cells in a logarithmic growth phase were trypsinized and resuspended in the medium to a concentration of 2×10^6 cells/mL. 50 μL/well of the cell resuspension was added to a 96-well plate such that the number of cells in each well was […]. An appropriate amount of 10 mM DMSO solution of the compound to be tested was taken and diluted to a concentration of 2× test concentration with the medium. 50 μL/well was added to the cells in the 96-well plate, and the 96-well plate was incubated in an incubator at 37° C. and 5% CO2 for 16 hours. The medium was DMEM (High glucose) containing 10% FBS.
2) After the cell incubation, 100 μL/well of Bright-Glo™ Luciferase detection reagent was added, and the mixture was incubated at room temperature for 5 minutes. Relative luciferase activity unit (RLU) was read using a microplate reader.
3) The EC50 of effect of the tested compound to stimulate hTLR7 was fitted by the GraphPad software log(agonist) vs. response—Variable slope four-parameter method.

SMILES | EC50 (THP1-defNLRP3 cells) [µM] | EC50 (hTLR7) [µM]
Nc1cc(N[C@H]2CC[C@H](O)C2)c2sc(-c3ccn[nH]3)cc2n1 [Compound 26, (1S,3S)-3-((5-amino-2-(1H-pyrazol-5-yl)thieno[3,2-b]pyridin-7-yl)amino)cyclopentanol] | > 30 | > 100
Nc1cc(N[C@@H]2CC[C@@H](O)C2)c2sc(-c3ccn[nH]3)cc2n1 [Compound 30s, (1R,3R)-3-((5-amino-2-(1H-pyrazol-5-yl)thieno[3,2-b]pyridin-7-yl)amino)cyclopentanol hydrochloride] | > 30 | > 100
Nc1cc(N[C@@H]2CC[C@H](O)C2)c2sc(-c3ccn[nH]3)cc2n1 [Compound 31, (1S,3R)-3-((5-amino-2-(1H-pyrazol-5-yl)thieno[3,2-b]pyridin-7-yl)amino)cyclopentanol] | > 30 | > 100
Nc1cc(NC2CC(O)C2)c2sc(-c3ccn[nH]3)cc2n1 (centres unmarked) [Compound 40, 3-((5-amino-2-(1H-pyrazol-5-yl)thieno[3,2-b]pyridin-7-yl)amino)cyclobutanol] | > 30 | > 100
CN1CC[C@H](Nc2cc(N)nc3cc(-c4ccn[nH]4)sc23)C1 [Compound 51, (S)—N^7-(1-methylpyrrolidin-3-yl)-2-(1H-pyrazol-5-yl)thieno[3,2-b]pyridine-5,7-diamine] | > 30 | > 100
CN1CCN(CCCNc2cc(N)nc3cc(-c4ccn[nH]4)sc23)CC1 [Compound 54, N^7-(3-(4-methylpiperazin-1-yl)propyl)-2-(1H-pyrazol-5-yl)thieno[3,2-b]pyridine-5,7-diamine] | > 30 | > 100
Nc1cc(NCc2ccccn2)c2sc(-c3ccn[nH]3)cc2n1 [Compound 59, 2-(1H-pyrazol-5-yl)-N^7-(pyridin-2-ylmethyl)thieno[3,2-b]pyridine-5,7-diamine] | > 30 | > 100
Cn1ccc(CNc2cc(N)nc3cc(-c4ccn[nH]4)sc23)n1 [Compound 60, N^7-(1-methyl-1H-pyrazol-3-yl)methyl-2-(1H-pyrazol-5-yl)thieno[3,2-b]pyridine-5,7-diamine] | > 30 | > 100
Nc1cc(NC2CCOC2)c2sc(-c3ccn[nH]3)cc2n1 (centres unmarked) [Compound 61, 2-(1H-pyrazol-5-yl)-N^7-(tetrahydrofuran-3-yl)thieno[3,2-b]pyridine-5,7-diamine] | > 30 | > 100
Cn1cnc(CNc2cc(N)nc3cc(-c4ccn[nH]4)sc23)c1 [Compound 63, N^7-(1-methyl-1H-imidazol-4-yl)methyl-2-(1H-pyrazol-5-yl)thieno[3,2-b]pyridine-5,7-diamine] | > 30 | > 100
CN1CCC(Nc2cc(N)nc3cc(-c4ccn[nH]4)sc23)CC1 [Compound 89, N^7-(1-methylpiperidin-4-yl)-2-(1H-pyrazol-5-yl)thieno[3,2-b]pyridine-5,7-diamine] | > 30 | > 100
Nc1cc(NCCCO)c2sc(-c3ccncc3)cc2n1 [Compound 90, 3-((5-amino-2-(pyridin-4-yl)thieno[3,2-b]pyridin-7-yl)amino)-1-propanol] | > 30 | > 100

More lines, now with the values ahead:

EC50 (THP1-defNLRP3 cells) [µM] | EC50 (hTLR7) [µM] | SMILES
> 30 | > 100 | C[C@H](O)CNc1cc(N)nc2cc(-c3ccn[nH]3)sc12 [Compound 33]
> 30 | > 100 | CC(=O)NCCNc1cc(N)nc2cc(-c3ccn[nH]3)sc12 [Compound 52]
> 30 | > 100 | CC(=O)NCCCNc1cc(N)nc2cc(-c3ccn[nH]3)sc12 [Compound 53]
> 30 | > 100 | Nc1cc(NCCN2CCOCC2)c2sc(-c3ccn[nH]3)cc2n1 [Compound 55, N^7-(2-morpholinoethyl)-2-(1H-pyrazol-5-yl)thieno[3,2-b]pyridine-5,7-diamine]
> 30 | > 100 | CN1CCN(CCNc2cc(N)nc3cc(-c4ccn[nH]4)sc23)CC1 [Compound 57, N^7-(2-(4-methylpiperazin-1-yl)ethyl)-2-(1H-pyrazol-5-yl)thieno[3,2-b]pyridine-5,7-diamine]
> 30 | > 100 | Nc1cc(NCCCNC(=O)C2CC2)c2sc(-c3ccn[nH]3)cc2n1 [Compound 58]
> 30 | > 100 | CC1CN(CCNc2cc(N)nc3cc(-c4ccn[nH]4)sc23)CC(C)O1 (centres unmarked) [Compound 62]
> 30 | > 100 | Nc1cc(NCCNC(=O)C2CC2)c2sc(-c3ccn[nH]3)cc2n1 [Compound 64]
> 30 | > 100 | CC(=O)N(C)CCNc1cc(N)nc2cc(-c3ccn[nH]3)sc12 [Compound 73, N-(2-((5-amino-2-(1H-pyrazol-5-yl)thieno[3,2-b]pyridin-7-yl)amino)ethyl)-N-methylethanamide]
> 30 | > 100 | CC(=O)N(C)CCCNc1cc(N)nc2cc(-c3ccn[nH]3)sc12 [Compound 74, N-(3-((5-amino-2-(1H-pyrazol-5-yl)thieno[3,2-b]pyridin-7-yl)amino)propyl)-N-methylacetamide]
> 30 | > 100 | CN(CCNc1cc(N)nc2cc(-c3ccn[nH]3)sc12)C(=O)C1CC1 [Compound 75, N-(2-((5-amino-2-(1H-pyrazol-5-yl)thieno[3,2-b]pyridin-7-yl)amino)ethyl)-N-methylcyclopropionamide]
> 30 | > 100 | CN(CCCNc1cc(N)nc2cc(-c3ccn[nH]3)sc12)C(=O)C1CC1 [Compound 76, N-(3-((5-amino-2-(1H-pyrazol-5-yl)thieno[3,2-b]pyridin-7-yl)amino)propyl)-N-methylcyclopropane formamide]
> 30 | > 100 | CCC(=O)N(C)CCNc1cc(N)nc2cc(-c3ccn[nH]3)sc12 [Compound 88, N-(2-((5-amino-2-(1H-pyrazol-5-yl)thieno[3,2-b]pyridin-7-yl)amino)ethyl)-N-methylpropionamide]
